Laboratory results taken from patent US20030199590A1, “Prostaglandin analogues for promotion of hair growth” (priority 2002, published 2003).
Where two headings read alike, the source gives them in different places. Values belong to the molecule of their own block, whether it stands above or below them.

Columns and labels:
[1] = target: T1, FP receptors (Swiss 3T3 cells expressing FP receptors) (Mus musculus, UniProt P43117); assay: FP receptor-mediated phosphoinositide turnover assay; format: cell-based; details: for EC50: [3H]-IPs in Swiss 3T3 cells; for % response: efficacy relative to standard; for Emax: Swiss-3T3, 1 h, efficacy relative to standard full agonist (100%), read-out: FP functional (%) agonistic activity
T1 construct: endogenous in cells; host or cells: Swiss 3T3 cells
T1 sequence (P43117 whole entry): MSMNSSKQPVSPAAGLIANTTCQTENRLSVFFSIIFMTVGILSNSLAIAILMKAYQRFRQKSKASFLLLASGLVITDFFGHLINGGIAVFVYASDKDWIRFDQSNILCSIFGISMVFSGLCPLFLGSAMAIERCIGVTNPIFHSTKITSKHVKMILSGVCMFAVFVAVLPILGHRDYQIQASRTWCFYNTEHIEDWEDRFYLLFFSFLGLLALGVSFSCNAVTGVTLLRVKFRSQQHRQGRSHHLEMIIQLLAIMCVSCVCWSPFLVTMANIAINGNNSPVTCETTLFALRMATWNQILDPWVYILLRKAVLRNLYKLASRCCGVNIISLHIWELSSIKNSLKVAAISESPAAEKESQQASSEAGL
Protocol: FP receptor-mediated phosphoinositide turnover assay: [^3H]Inositol phosphates ([^3H]-IPs) produced by agonist-mediated activation of phospholipase C in Swiss 3T3 cells expressing FP receptors were quantified as follows. Confluent 3T3 cells were exposed to 1.0-1.5 μCi [^3H]-myo-inositol (18.3 Ci/mmol) in 0.5 ml DMEM for 24-30 hours at 37° C. Then cells were rinsed once with DMEM/F-12 containing 10 mM LiCl, and the agonist stimulation experiment was performed in 0.5 ml of the same medium to facilitate accumulation of [^3H]-IPs. Cells were exposed to the agonist or solvent for 60 min at 37° C. (triplicate determinations), followed by aspiration of the medium and immediate addition of 1 ml of ice-cold 0.1 M formic acid. The plates were kept cold and then frozen. Samples frozen up to one week were thawed prior to chromatographic separation of radiolabeled components. The cell lysates (0.9 ml) were loaded on columns packed with approximately 1 ml AG 1-X8 anion exchange resin. The elution procedure consisted of a wash with 10 ml of H2O, then 8 ml of 50 mM ammonium formate, and finally 4 ml of 1.2 M ammonium formate with 0.1 M formic acid, which was collected in a scintillation vial. To this eluate was added 15 ml of scintillation fluid and the total [^3H]-IPs determined by scintillation counting on a beta-counter. Data were analyzed by the sigmoidal fit function of the Origin Scientific Graphics software (Microcal Software, Northampton, Mass.) to determine agonist potency (EC50 value) and efficacy, relative to the standard cloprostenol.

[2] = target: T2, FP receptors (Bos taurus, UniProt P37289); assay: FP receptor binding assay ([3H]PGF2α, bovine corpus luteum membranes); details: for Ki: Table 2, FP receptor binding; for IC50: Table 1, [3H]PGF2α, bovine corpus luteum membranes, free acid form
T2 construct: Washed total particulate bovine corpus luteum membranes; from tissue; host or cells: bovine corpus luteum membranes
T2 sequence (P37289 whole entry): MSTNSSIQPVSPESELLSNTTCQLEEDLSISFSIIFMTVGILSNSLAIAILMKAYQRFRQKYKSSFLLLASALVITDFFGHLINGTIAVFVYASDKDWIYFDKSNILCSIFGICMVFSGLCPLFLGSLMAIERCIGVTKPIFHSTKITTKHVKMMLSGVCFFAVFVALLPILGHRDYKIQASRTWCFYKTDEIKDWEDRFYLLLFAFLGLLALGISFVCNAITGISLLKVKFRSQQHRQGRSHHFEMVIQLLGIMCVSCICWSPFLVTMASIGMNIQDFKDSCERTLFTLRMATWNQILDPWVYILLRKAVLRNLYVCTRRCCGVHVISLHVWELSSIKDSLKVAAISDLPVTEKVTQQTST
Protocol: Non-specific binding was defined with 1-10 μM unlabeled PGF2α or fluprostenol. The assays were terminated by vacuum filtration (using Whatman GF/B glass fiber filter previously soaked in 0.3% polyethyleneimine) and the data analyzed by a non-linear, iterative, curve-fitting computer program.

[3] = test system: eyelash; assay: Eyelash change from baseline evaluated by photographs in clinical studies; format: in vivo, patients; details: for Percent of Patients with Eyelash Change: Table 3; for Percent of Patients with Eyelash Change: Change Reported / Percent of Patients with Eyelash Change: Color Change / Percent of Patients with Eyelash Change: Density Change / Percent of Patients with Eyelash Change: Length Change / Percent of Patients with Eyelash Change: Thickness Change: Table 4; for change in eyelash color, length, density and/or thickness (in words): Travoprost 0.0015% and 0.004%, latanoprost 0.005% compared to travoprost
From the text: Eyelash photographs of each eye were taken at determination of patient eligibility […] (baseline) and Months 1.5, 3, 4.5 and 6 in four clinical studies. Additional photographs were taken at Months 9 and 12 in two clinical studies. Eyelash change was classified using the following categories: change in eyelash color, increase in eyelash length, increase in eyelash density and increase in eyelash thickness. Two independent readers evaluated the photographs subjectively for any change from baseline in eyelash characteristics.

[4] = test system: eyelash; details: in some instances, U.S. Pat. No. 6,262,105; cited from earlier work
[5] = Table 1, read-out: FP functional EC50

Structure (SMILES): O=C(O)CCCCCC[C@@H]1[C@@H](/C=C/[C@@H](O)COc2cccc(Cl)c2)[C@H](O)C[C@@H]1O [Compound 86]
EC50 ([1]; Table 2, read-out: EC50): 4.92 nM | % response ([1]; Table 2): 100% | Ki [2]: 93 nM

Structure (SMILES): O=C(O)CCCCCC[C@H]1C(=O)CO[C@@H]1/C=C/[C@H](O)COc1ccccc1 [Compound 21]
EC50 [1, 5]: > 10000 nM | IC50 [2]: 78000 nM

Structure (SMILES): O=C(O)CC/C=C\CC[C@H]1[C@@H](O)CO[C@@H]1/C=C/[C@H](O)COc1ccccc1 [Compound 50]
Emax ([1]; Table 1): 59% | EC50 [1, 5]: 252 nM | IC50 [2]: 5100 nM

Structure (SMILES): CC(C)OC(=O)CCC/C=C\C[C@@H]1[C@@H](/C=C/[C@@H](O)COc2cccc(C(F)(F)F)c2)[C@H](O)C[C@@H]1O [Travoprost]
Percent of Patients with Eyelash Change ([3]; 0.0015%): 48.1% | Percent of Patients with Eyelash Change ([3]; 0.004%): 61.3% | Percent of Patients with Eyelash Change: Change Reported ([3]; 0.0015%): 48.1% | Percent of Patients with Eyelash Change: Color Change ([3]; 0.0015%): 37.3% | Percent of Patients with Eyelash Change: Density Change ([3]; 0.0015%): 44.6% | Percent of Patients with Eyelash Change: Length Change ([3]; 0.0015%): 48.1% | Percent of Patients with Eyelash Change: Thickness Change ([3]; 0.0015%): 33.8% | Percent of Patients with Eyelash Change: Change Reported ([3]; 0.004%): 61.3% | Percent of Patients with Eyelash Change: Color Change ([3]; 0.004%): 47.9% | Percent of Patients with Eyelash Change: Density Change ([3]; 0.004%): 58.2% | Percent of Patients with Eyelash Change: Length Change ([3]; 0.004%): 61.1% | Percent of Patients with Eyelash Change: Thickness Change ([3]; 0.004%): 51.1% | change in eyelash color, length, density and/or thickness (in words) [3]: concentration-related change

Structure (SMILES): O=C(O)CCCCCC[C@@H]1[C@@H](/C=C/[C@H](O)COc2cccc(Cl)c2)[C@H](O)C[C@@H]1O [Compound 87]
EC50 ([1]; Table 2, read-out: EC50): 38 nM | % response ([1]; Table 2): 88% | Ki [2]: 730 nM

Structure (SMILES): O=C(O)CCC/C=C\C[C@@H]1[C@@H](/C=C/[C@H](F)COc2ccccc2)[C@H](O)C[C@@H]1O [Compound 60]
Emax ([1]; Table 1): 98% | EC50 [1, 5]: 96 nM | IC50 [2]: 1120 nM

Structure (SMILES): O=C(O)CCC/C=C\C[C@@H]1[C@@H](/C=C/[C@H](F)COc2cccc(Cl)c2)[C@H](O)C[C@@H]1O [Compound 62]
Emax ([1]; Table 1): 76% | EC50 [1, 5]: 81 nM | IC50 [2]: 182 nM

Structure (SMILES): CC(C)OC(=O)CCC/C=C\C[C@@H]1[C@@H](CC[C@@H](O)CCc2ccccc2)[C@H](O)C[C@@H]1O [Latanoprost]
eyelash growth in glaucoma patients (in words) [4]: increased eyelash growth | Percent of Patients with Eyelash Change ([3]; 0.005%): 25.8% | Percent of Patients with Eyelash Change: Change Reported ([3]; 0.005%): 25.8% | Percent of Patients with Eyelash Change: Color Change ([3]; 0.005%): 16.5% | Percent of Patients with Eyelash Change: Density Change ([3]; 0.005%): 22.2% | Percent of Patients with Eyelash Change: Length Change ([3]; 0.005%): 25.8% | Percent of Patients with Eyelash Change: Thickness Change ([3]; 0.005%): 17.5% | change in eyelash color, length, density and/or thickness (in words) [3]: greatly reduced frequency

Other lines, results leading:

EC50 ([1]; Table 2, read-out: EC50): 3.8 nM | % response ([1]; Table 2): 96% | Ki [2]: 35 nM
Structure (SMILES): O=C(O)CCC/C=C\C[C@@H]1[C@@H](/C=C/[C@@H](O)COc2cccc(C(F)(F)F)c2)[C@H](O)C[C@@H]1O [Compound 82]

Emax ([1]; Table 1): 43% | EC50 [1, 5]: 889 nM | IC50 [2]: 15000 nM
Structure (SMILES): O=C(O)CCC/C=C\C[C@H]1[C@@H](O)CO[C@@H]1/C=C/[C@H](O)COc1cccc(C(F)(F)F)c1 [Compound 27]

Emax ([1]; Table 1): 84% | EC50 [1, 5]: 2.2 nM | IC50 [2]: 238 nM
Structure (SMILES): O=C(O)CCC/C=C\C[C@@H]1[C@@H](/C=C/[C@@H](F)COc2cccc(Cl)c2)[C@H](O)C[C@@H]1O [Compound 63]

Emax ([1]; Table 1): 60% | EC50 [1, 5]: 108 nM | IC50 [2]: 1900 nM
Structure (SMILES): O=C(O)CCC/C=C\C[C@H]1CC[C@@H](O)[C@@H]1CC[C@@H](O)C1Cc2ccccc2C1 [Compound 11]
